Test results published in patent US11684614B2, “Formulations of hydroxypyridonate actinide/lanthanide decorporation agents” (priority 2017, dated 2023).
Where “and” joins values, the source holds several entries; their conditions need not be identical. Equal values may be shown once.

Assay: Repeated-treatment efficacy for removing an intravenous dose of 238Pu (excretion, tissue retention, clinical observations), female and male arms
Format: in vivo, Swiss-Webster mice
Details: listed as 3,4,3-LI(1,2-HOPO); for % Recovered Dose - Feces per Day: male mice
Protocol: The objective of this study was to characterize the efficacy of 3,4,3-L1(1,2-HOPO) at enhancing elimination from an internal plutonium burden in female and male Swiss-Webster mice administered a soluble citrate complex of ^238Pu and treated multiple times, starting at 24 hours after the exposure. Efficacy was evaluated by comparing the tissue contents, urinary and fecal excretions of ^238Pu in treated animals versus untreated animals.
The medical countermeasure 3,4,3-L1(1,2-HOPO) was administered parenterally (ip) or orally (po) via consecutive injections or gavages (six daily or twelve twice daily) starting at 24 hours post contamination at the following four selected doses: 30 μmol/kg ip, 150 μmol/kg po, 300 μmol/kg po, and 600 μmol/kg po (equivalent to respective approximate human doses range of […], using the accepted conversion system of mouse doses into human equivalent doses—HED—based on body surface area). Oral doses also included the permeability enhancer selected during formulation development work.
• Challenge isotope: ^238Pu • Challenge dose: 25 nCi (i.e., approximately 0.8 μCi/kg) • Route of contamination: Intravenous (iv) tail-vein • Route of treatment: Intraperitoneal Injection (ip) or Oral (po) • Frequency of treatment: Multiple (once- or twice-daily for 6 days) doses, starting 24 hr postcontamination • Treatment dose calculation: Dose calculations (mg/kg or μmol/kg) for the decorporation agent were based on the individual body weight measured after contamination. • Study Duration: 11 days, in-life
c. […] Test article and control dose formulations were prepared within 1 day of dose administration, by weighing out the appropriate amount of test article, dispersing in vehicle. For ip solutions, the test article was used alone, while for oral suspensions, a mixture of test article and excipient (90:10, w:w) was used. The pH was adjusted to 7.0-7.4 for ip administration and 5.0-5.5 for oral administration with sterile NaOH. Dose formulations were prepared at room temperature and filter-sterilized. • Storage: 2-8° C.; refrigerated; protected from light. • Characterization: The concentration of each test article formulation was verified by high-performance liquid chromatography-mass spectrometry. • Test Article Handling: Test, reference, and control article formulations were handled with the use of eye protection, gloves, and a protective laboratory coat. • Correct Dose Assurance: The test article was weighed with calibrated balances. The administration of each dose formulation was properly documented, and the amount administered to each animal recorded.
e. Experimental Procedures (In-Life Evaluations and Euthanasia) • Contamination: Single administration by intravenous (iv) tail-vein injection (0.2 mL injection volume) under isoflurane anesthesia. Three standard 0.2 mL injections were performed into polyethylene bottles and pre-loaded with aliquots of concentrated nitric acid on each injection day. Six female and six male mice were culled for necropsy 1 hr post-contamination and were used as standards. A11 standards were processed and counted together with the final samples to allow verification of the contamination dose. • Dose Administration: Single administration by intraperitoneal injection (ip) or oral gavage (po) under isoflurane anesthesia. • Mortality/Morbidity: Assessed at least once daily. • Clinical Observations: Recorded once daily (4 hr post-dose on day of treatment), or more often as clinical signs warranted. […]

[1] = male arm table, Day 11 necropsy, animal group M

SMILES: O=C(NCCCN(CCCCN(CCCNC(=O)c1cccc(=O)n1O)C(=O)c1cccc(=O)n1O)C(=O)c1cccc(=O)n1O)c1cccc(=O)n1O [3,4,3-L1(1,2-HOPO)]
- % Recovered Dose Urine per Day, Day 5 [1]: 0.66% and 0.36% and 0.19% and 0.53% and 0.60% and 0.47% and 0.30% and 0.22%
- % Recovered Dose Urine per Day, Day 6 [1]: 0.38% and 0.35% and 0.46% and 0.26% and 0.36% and 0.41% and 0.12% and 0.61%
- % Recovered Dose Urine per Day, Day 7 [1]: 0.73% and 0.69% and 0.76% and 0.65% and 0.63% and 0.83% and 0.47% and 0.38%
- % Recovered Dose Urine per Day, Day 8 [1]: 0.40% and 0.36% and 0.42% and 0.32% and 0.43% and 0.34% and 0.74% and 0.33%
- % Recovered Dose Urine per Day, Day 9 [1]: 0.40% and 0.45% and 0.37% and 0.42% and 0.61% and 0.41% and 0.48%
- % Recovered Dose Urine per Day, Day 10 [1]: 0.12% and 0.23% and 0.16% and 0.28% and 0.21% and 0.62% and 0.46% and 0.27%
- % Recovered Dose Urine per Day, Day 11 [1]: 0.35% and 0.30% and 0.22% and 0.20% and 0.36% and 0.43% and 0.26% and 0.42%
- % Recovered Dose - Feces per Day (group B, feces day 1, Day 7 necropsy): 4.37% and 8.32% and 7.75% and 4.30%
- % Recovered Dose - Feces per Day (group B, feces day 2, Day 7 necropsy): 7.66% and 12.16% and 9.09% and 13.43%
- % Recovered Dose - Feces per Day (group B, feces day 3, Day 7 necropsy): 2.15% and 3.85% and 3.59% and 3.55%
- % Recovered Dose - Feces per Day (group B, feces day 4, Day 7 necropsy): 3.14% and 4.08% and 1.98% and 4.25%
- % Recovered Dose - Feces per Day (group B, feces day 5, Day 7 necropsy): 1.34% and 2.97% and 0.93% and 2.49%
- % Recovered Dose - Feces per Day (group B, feces day 6, Day 7 necropsy): 2.28% and 6.44% and 1.47% and 2.02%
- % Recovered Dose - Feces per Day (group B, feces day 7, Day 7 necropsy): 1.46% and 2.68% and 1.21% and 2.10%
- % Recovered Dose - Feces per Day (group C, feces day 1, Day 7 necropsy): 8.78% and 6.29% and 9.94% and 4.97%
- % Recovered Dose - Feces per Day (group C, feces day 2, Day 7 necropsy): 15.31% and 12.37% and 22.78% and 14.58%
- % Recovered Dose - Feces per Day (group C, feces day 3, Day 7 necropsy): 2.49% and 5.42% and 4.54% and 6.24%
- % Recovered Dose - Feces per Day (group C, feces day 4, Day 7 necropsy): 3.01% and 3.04% and 5.87% and 3.77%
- % Recovered Dose - Feces per Day (group C, feces day 5, Day 7 necropsy): 1.70% and 2.00% and 3.00% and 2.15%
- % Recovered Dose - Feces per Day (group C, feces day 6, Day 7 necropsy): 1.91% and 2.24% and 2.37% and 2.32%
- % Recovered Dose - Feces per Day (group C, feces day 7, Day 7 necropsy): 1.21% and 1.32% and 1.95% and 1.31%
- % Recovered Dose - Feces per Day (group E, feces day 1, Day 7 necropsy): 6.19% and 11.96% and 7.28% and 11.97%
- % Recovered Dose - Feces per Day (group E, feces day 2, Day 7 necropsy): 19.35% and 15.22% and 16.75% and 13.98%
- % Recovered Dose - Feces per Day (group E, feces day 3, Day 7 necropsy): 3.91% and 2.72% and 3.36% and 3.87%
- % Recovered Dose - Feces per Day (group E, feces day 4, Day 7 necropsy): 5.36% and 3.66% and 5.40% and 5.25%
- % Recovered Dose - Feces per Day (group E, feces day 5, Day 7 necropsy): 1.97% and 1.84% and 1.67% and 1.79%
- % Recovered Dose - Feces per Day (group E, feces day 6, Day 7 necropsy): 2.01% and 2.66% and 2.92% and 1.87%
- % Recovered Dose - Feces per Day (group E, feces day 7, Day 7 necropsy): 2.11% and 1.97% and 2.22% and 1.18%
- % Recovered Dose - Feces per Day (group F, feces day 1, Day 7 necropsy): 6.91% and 7.78% and 14.62% and 9.13%
- % Recovered Dose - Feces per Day (group F, feces day 2, Day 7 necropsy): 14.25% and 13.00% and 16.24% and 15.40%
- % Recovered Dose - Feces per Day (group F, feces day 3, Day 7 necropsy): 13.31% and 3.36% and 3.68% and 5.91%
- % Recovered Dose - Feces per Day (group F, feces day 4, Day 7 necropsy): 4.17% and 4.09% and 3.98% and 3.52%
- % Recovered Dose - Feces per Day (group F, feces day 5, Day 7 necropsy): 1.77% and 2.34% and 1.75% and 1.78%
- % Recovered Dose - Feces per Day (group F, feces day 6, Day 7 necropsy): 1.60% and 2.84% and 1.72% and 1.54%
- % Recovered Dose - Feces per Day (group F, feces day 7, Day 7 necropsy): 0.74% and 2.65% and 2.45% and 1.59%
